These results are taken from patent US20100004459A1, “2-PHENYLNICOTINIC ACID DERIVATIVE” (NIPPON ZOKI PHARMACEUTICAL CO., LTD., priority 2006, published 2010).

In one series the target is T1, xanthine oxidase (Bos taurus, UniProt P80457).
T1 construct: derived from milk; manufactured by Sigma; purchased Sigma; host or cells: milk (natural source)
Description: Test for xanthine oxidase inhibitory activity. It counts as biochemical. Conditions: xanthine oxidase derived from milk (Sigma); substrate xanthine; uric acid production at OD 292 nm, 37° C. The method, then:
Evaluation of inhibitory activity of the present invention to xanthine oxidase was conducted using xanthine as a substrate by measuring the amount of uric acid produced by xanthine oxidase which is an oxidizing enzyme therefor. Thus, xanthine oxidase (0.01 unit/L, 20 μL/well; derived from milk; manufactured by Sigma), diethylenetriamine pentaacetate (0.01 mol/L, 20 μL/well), phosphate buffer (20 μL/well), distilled water (100 μL/well) and a diluted solution (20 μL/well) of a test substance were mixed in a 96-well quartz microplate. After preincubating for 5 minutes in a microplate spectrophotometer warmed at 37° C., xanthine (1 mmol/L, 20 μL/well) was added. The changes with elapse of time in OD 292 nm based on the production of uric acid was measured using a microplate spectrophotometer warmed at 37° C. whereby the initial reaction velocity was measured. Xanthine oxidase inhibitory activity was calculated by the following formula and concentration of the test substance for 50% suppression (IC50 value) was calculated.
Inhibition Rate(%)={[(Initial Reaction Velocity of the Reaction Control)-(Initial Reaction Velocity upon Addition of Test Substance)]/[Initial Reaction Velocity of the Reaction Control]}×100

The test system of series [1] is model rats of fructose-loaded hypertriglyceridemia. The series is described as follows: Model rats of fructose-loaded hypertriglyceridemia: action for lowering of uric acid in serum. It counts as in vivo. The settings on record: Rattus norvegicus, po; male SD rats, 75% fructose solution for three days; 100 mg/kg orally once daily; serum 2 hours after final administration; read-out: Inhibition Rate (%) Action for lowering of uric acid. On the procedure: (§1) The test was conducted according to a method of Kusama, et al. (Folia Pharmacologica Japonica, volume 92, pages 175 to 180, 1988). Thus, male rats of SD strain of 6 to 7 weeks age were made in free access to a 75% (w/v) D(−)-fructose solution for three days. During the period of fructose ingestion, a test substance (100 mg/kg) was suspended in 1% methyl cellulose and orally administered once daily. After 2 hours from the final administration, about 500 μL per rat of blood was collected using a hematocrit capillary from orbital venous plexus under anesthetization with ether and centrifuged (3000 rpm at 4° C. for 20 minutes) whereupon the serum was prepared.
(2) Action for Lowering of Uric Acid in Serum
Uric acid value in the serum was measured by a Uric acid C-Test Wako (manufactured by Wako Pure Chemical Industries, Ltd.) using the above serum and each uric acid lowering rate was determined by the following formula.
Uric Acid Lowering Rate(%)={[(Uric Acid Value of Control Animal)-(Uric Acid Value of Animals Administered with Test Substance)]/[Uric Acid Value of Control Animal]}×100

Series [2] shares this test system. Description: Model rats of fructose-loaded hypertriglyceridemia: action for lowering of triglyceride in serum. In kind it is in vivo. The settings on record: Rattus norvegicus, po; male SD rats, 75% fructose solution for three days; 100 mg/kg orally once daily; serum 2 hours after final administration; read-out: Inhibition Rate (%) Action for lowering of triglyceride. On the procedure:
as §1
(1) Action for Lowering of Triglyceride in Serum
The triglyceride (TG) in the serum was measured by a Triglyceride E-Test Wako (manufactured by Wako Pure Chemical Industries, Ltd.) and each TG lowering rate was determined by the following formula.
TG Lowering Rate(%)={[(TG Value of Control Animal)−(TG Value of Animal Administered with Test Substance)]/[(TG Value of Control Animal)-(TG Value of Untreated Animal)]}×100

T1 sequence (P80457 whole entry): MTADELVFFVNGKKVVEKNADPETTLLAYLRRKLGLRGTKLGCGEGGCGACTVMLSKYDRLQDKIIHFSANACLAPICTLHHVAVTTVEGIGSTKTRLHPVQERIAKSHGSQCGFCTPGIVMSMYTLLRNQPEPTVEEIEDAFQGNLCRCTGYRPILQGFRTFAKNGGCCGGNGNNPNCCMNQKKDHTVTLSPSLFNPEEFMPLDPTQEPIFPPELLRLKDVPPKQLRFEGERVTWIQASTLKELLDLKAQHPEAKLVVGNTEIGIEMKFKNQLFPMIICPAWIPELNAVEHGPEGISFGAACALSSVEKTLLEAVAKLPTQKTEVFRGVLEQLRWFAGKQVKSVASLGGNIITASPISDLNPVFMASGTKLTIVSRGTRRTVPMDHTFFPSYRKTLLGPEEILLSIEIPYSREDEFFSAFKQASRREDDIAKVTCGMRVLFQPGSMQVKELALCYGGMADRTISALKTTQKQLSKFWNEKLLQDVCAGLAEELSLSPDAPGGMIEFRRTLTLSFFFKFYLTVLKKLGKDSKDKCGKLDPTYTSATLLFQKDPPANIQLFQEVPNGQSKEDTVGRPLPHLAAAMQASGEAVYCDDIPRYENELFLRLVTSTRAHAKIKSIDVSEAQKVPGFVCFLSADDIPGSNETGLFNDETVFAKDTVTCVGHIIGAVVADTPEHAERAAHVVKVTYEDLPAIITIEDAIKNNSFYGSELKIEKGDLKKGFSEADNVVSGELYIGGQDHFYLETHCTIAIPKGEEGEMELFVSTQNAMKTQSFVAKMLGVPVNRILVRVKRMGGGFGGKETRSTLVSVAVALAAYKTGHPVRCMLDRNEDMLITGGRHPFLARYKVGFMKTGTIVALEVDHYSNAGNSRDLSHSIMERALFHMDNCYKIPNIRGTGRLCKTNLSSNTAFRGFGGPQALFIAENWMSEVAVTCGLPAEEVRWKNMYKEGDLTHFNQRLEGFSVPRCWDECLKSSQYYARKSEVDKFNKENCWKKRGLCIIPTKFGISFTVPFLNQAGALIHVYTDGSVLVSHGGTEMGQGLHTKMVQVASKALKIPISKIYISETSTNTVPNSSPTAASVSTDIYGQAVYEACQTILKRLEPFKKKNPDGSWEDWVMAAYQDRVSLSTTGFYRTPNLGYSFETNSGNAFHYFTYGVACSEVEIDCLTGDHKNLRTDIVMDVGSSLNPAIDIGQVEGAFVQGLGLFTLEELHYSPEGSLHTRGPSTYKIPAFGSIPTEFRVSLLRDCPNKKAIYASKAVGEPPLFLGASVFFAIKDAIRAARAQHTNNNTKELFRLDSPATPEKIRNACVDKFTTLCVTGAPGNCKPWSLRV

The term melting point denotes the temperature, or range, at which the solid turns liquid. For orientation: IC50 means the midpoint of a concentration-inhibition curve. The low end stands for higher potency, the high end for lower potency. Consider `N#Cc1cc(-c2ncccc2C(=O)O)ccc1OCCc1ccccc1C(F)(F)F` [Example 56], for which the melting point was 187 to 188 °C. For the same molecule, on xanthine oxidase, half-maximal inhibition (IC50) required 36 nM. Moreover, in series [1], the inhibition in vivo at 100 mg/kg was 38.7%. In addition, the inhibition in vivo at 100 mg/kg in series [2] was 72.1%.

Regarding `CC(C)(COc1ccc(-c2ncccc2C(=O)O)cc1C#N)c1ccccc1` [Example 78, 2-[3-Cyano-4-(2-methyl-2-phenylpropoxy)phenyl]nicotinic acid], the melting point is 221 to 222 °C. In series [1], the inhibition in vivo at 100 mg/kg was 19.4%. The inhibition in vivo at 100 mg/kg in series [2] amounted to 21.6%.

On to `N#Cc1cc(-c2ncccc2C(=O)O)ccc1OCC1CCCCC1` [Example 47, 2-(3-Cyano-4-cyclohexylmethoxyphenyl)nicotinic acid], for which the melting point lay in the range of 220 to 221 °C. The molecule also showed an IC50 on xanthine oxidase of 24 nM. Moreover, the inhibition in vivo at 100 mg/kg in series [1] amounted to 52.6%. In addition, the inhibition in vivo at 100 mg/kg in series [2] amounted to 46.3%.

For `CC(C)(C)COc1ccc(-c2ncccc2C(=O)O)cc1C#N` [Example 83, 2-[3-Cyano-4-(2,2-dimethylpropoxy)phenyl]nicotinic acid], the melting point lay in the range of 231 to 232 °C. The molecule also returned an IC50 on xanthine oxidase of 42 nM. In series [1], the inhibition in vivo at 100 mg/kg turned out to be 56.6%. Also, the inhibition in vivo at 100 mg/kg in series [2] came to 112%.

`N#Cc1cc(-c2ncccc2C(=O)O)ccc1OCCCc1ccc(C(F)(F)F)cc1` [Example 59, 2-{3-Cyano-4-[3-(4-trifluoromethylphenyl)propoxy]phenyl}nicotinate] had a melting point of 183 to 184 °C. This molecule also gave an IC50 against xanthine oxidase of 42 nM. For the same molecule, in series [1], the inhibition in vivo at 100 mg/kg was found to be 29.3%. For the same molecule, the inhibition in vivo at 100 mg/kg in series [2] came out at 53.2%.

Regarding `CCC(C)(C)COc1ccc(-c2ncccc2C(=O)O)cc1C#N` [Example 72, 2-[3-Cyano-4-(2,2-dimethylbutoxy)phenyl]nicotinic acid], the melting point is 166 to 167 °C. Also, on xanthine oxidase, the IC50 is 28 nM. In series [1], the inhibition in vivo at 100 mg/kg was 48.5%. For the same molecule, the inhibition in vivo at 100 mg/kg in series [2] stood at 34.2%.

For `CC(C)(C)CCOc1ccc(-c2ncccc2C(=O)O)cc1C#N` [Example 84, 2-[3-Cyano-4-(3,3-dimethylbutoxy)phenyl]nicotinic acid], the melting point was 206 to 207 °C. This molecule also had an IC50 against xanthine oxidase of 18 nM. Besides, the inhibition in vivo at 100 mg/kg in series [1] was found to be 69.2%. The inhibition in vivo at 100 mg/kg in series [2] turned out to be 41.4%.

Consider `N#Cc1cc(-c2ncccc2C(=O)O)ccc1OCCCCc1ccccc1` [Example 62, 2-[3-Cyano-4-(4-phenylbutoxy)phenyl]nicotinic acid], for which the melting point is 163 to 164 °C. The molecule further registered a half-inhibitory concentration (IC50) against xanthine oxidase of 27 nM. Moreover, the inhibition in vivo at 100 mg/kg in series [1] turned out to be 43.6%. In addition, in series [2], the inhibition in vivo at 100 mg/kg came out at 71.1%.

With `N#Cc1cc(-c2ncccc2C(=O)O)ccc1OCCc1ccccc1Cl` [Example 100, 2-{4-[2-(2-Chlorophenyl)ethoxy]-3-cyanophenyl}nicotinic acid], at xanthine oxidase, it took 65 nM to reach half-maximal inhibition (IC50). Also, the inhibition in vivo at 100 mg/kg in series [1] was determined as 58.2%; in series [2] it was 40.8%.

The molecule `N#Cc1cc(-c2ncccc2C(=O)O)ccc1OCC1CCCC1` [Example 75, 2-(3-Cyano-4-cyclopentylmethoxyphenyl)nicotinic acid] displayed a melting point of 227 to 228 °C. The molecule further gave an IC50 against xanthine oxidase of 24 nM. For the same molecule, the inhibition in vivo at 100 mg/kg in series [1] was 49.5%. Further, the inhibition in vivo at 100 mg/kg in series [2] came to 25.7%.

The molecule `Cc1ccccc1CCOc1ccc(-c2ncccc2C(=O)O)cc1C#N` [Example 102, 2-[3-Cyano-4-(2-methylphenethyloxy)-phenyl]nicotinic acid] gave an IC50 at xanthine oxidase of 53 nM. The inhibition in vivo at 100 mg/kg in series [1] stood at 25.2%; in series [2] it was 28.4%.

In turn, `CC1(COc2ccc(-c3ncccc3C(=O)O)cc2C#N)CCCCC1` [Example 77, 2-[3-Cyano-4-(1-methylcyclohexylmethoxy)phenyl]nicotinic acid] yielded a melting point of 100 to 101 °C. At xanthine oxidase, this molecule showed a half-inhibitory concentration (IC50) of 24 nM. Further, the inhibition in vivo at 100 mg/kg in series [1] was 27.8%. Further, in series [2], the inhibition in vivo at 100 mg/kg stood at 39.6%.
